The values below come from patent US20080199438A1, “Methods For Suppressing Tumor Proliferation” (DNAVEC RESEARCH INC., priority 2004, published 2008).

What all share (type): cell-based, human
Test [1] relates to MRC5 cells. The test is described as follows: FGF-2-mediated secretion of VEGF and HGF with signal transduction inhibitors or neutralizing antibody, ELISA. As to conditions: MRC5, 10 ng/ml FGF-2, 72 hours; rapamycin 100 ng/ml, U0126 10 μmol/L, Ras-inhibitory peptide 50 μmol/L. As to the method:
(A) Effect of various inhibitors of intracellular signal transduction pathways upon the secretion of VEGF and HGF in MRC5 cells. After 48 hours of preincubation in the presence of 1% FBS, cells were stimulated with 10 ng/ml of human recombinant FGF-2 in the presence or absence of various inhibitors. After 72 hours, the medium was subjected to ELISA. n=3 in each group. *P<0.01.
(C) Increases in FGF-2-mediated VEGF secretion completely depend on PDGFRα. After 48 hours of preincubation in the presence of 1% FBS, MRC5 cells were stimulated with 10 ng/ml of recombinant human FGF-2 in the presence or absence of an anti-PDGFRα neutralizing antibody. After 72 hours, the medium was subjected to ELISA. Similar results were obtained for the expression of HGF (data not shown). *P<0.01.
HSMC (J. Cell Biol., 50: 172-86 (1971)), MRC-5 (ATCC CCL-171), SAS (J. Biol. Chem., 270 (41): 24321-69 (1995)), MH134 (J. Natl. Cancer Inst., 17: 1-21 (1956)), QG56 (Int. J. Cancer, 35 (6): 808-12 (1985)), TF (Cancer, 69 (10): 2589-97 (1992)), KN (Cancer, 69 (10): 2589-97 (1992)), EBC-1 (Am. J. Pathol., 142 (2): 425-31 (1993)), PC9 (Int. J. Cancer, 15 (4): 449-55 (1985)), and COS7 Cells (ATCC CRL-1651) were purchased from American Type Culture Collection (ATCC). As mentioned previously, the intracellular signal inhibitors below were each used at the following concentrations for HSMC and MRC5 cells (Onimaru M et al., Circ Res. 91: 723-730 (2002)): Ras, Ras-inhibitory peptide (50 μmol/L, Alexis Japan, Tokyo, Japan); p70S6K, p70S6K inhibitor rapamycin (100 ng/ml, Sigma-Aldrich Japan, Tokyo, Japan); PKC, PKC inhibitor bisindolylmaleimide (100 nmol/L, Sigma); PI3K, PI3K-inhibitor wortmannin (120 nmol/L, Sigma); MEK inhibitor U0126 (10 μmol/L, Promega K.K., Tokyo, Japan); PKA, PKA-inhibitory peptide (1 μmol/L, Calbiochem, San Diego, Calif.); and […], NF-κB inhibitor ALLN (5 μmol/L, Roche Diagnostics, Tokyo, Japan).
(§1) As mentioned previously (Masaki I et al., Circ Res. 90: 966-973 (2002); Onimaru M et al., Circ Res. 91: 723-730 (2002)), the protein contents of the mouse limb muscle, tumor, and culture medium were determined using Quantikine Immunoassay systems for mice (both the 164 and 220 amino acid residue forms are recognized) and human VEGF-A, human FGF-2 (available to both human and mouse), human HGF (R&D Systems Inc., Minneapolis, Minn.), and rat HGF (available to mouse HGF; Institute of Immunology Inc., Tokyo, Japan), according to the manufacturer's instructions.

In test [2] the test system is MRC5 cells. Nature of the test: VEGF secretion after stimulation with FGF-2 and/or PDGF-AA, ELISA of culture medium. To be noted: MRC5, serum-free, 72 hours. As to the method:
(§2) (A) Recombinant FGF-2 and PDGF-AA work together to increase VEGF secretion from fibroblasts (MRC5) and vascular smooth muscle cells (HSMCs). After 48 hours of preincubation in serum-free conditions, each of the cell lines was stimulated with FGF-2 and/or PDGF-AA. After 72 hours, the cultured medium was subjected to ELISA. n3 in each group. *P<0.01. #P<0.05
as §1
(§3) To assess the role of the PDGF-AA signal in the angiogenic response of host vasculature, the FGF-2-mediated induction of VEGF and HGF in human mesenchymal cells (MRC5 and HSMC) cultured under serum-free conditions was investigated. […] In clinical application such as ischemia treatments, angiogenesis might also be induced more effectively by administering both FGF-2 and PDGF-AA, rather than either one alone.
For orientation: An ELISA detects its analyte on a solid surface through an enzyme-linked reagent.

Test [3] deals with HSMC. The description is as above. As to conditions: serum-free, 72 hours. As to the method:
as §2, §1, §3

Test [4] deals with MRC5 cells. The test is described as follows: Northern blot of receptor mRNA after growth factor stimulation. How it is done: (§4) (B) A time course of FGF-2-mediated expression of PDGFRα mRNA in MRC5 cells and HSMCs was analyzed by Northern blotting. After 48 hours of preincubation under serum-free conditions, each of the cell lines was stimulated with FGF-2. Cells were harvested at the time indicated in the figure and then subjected to Northern blot analysis. Bands were visualized and subjected to densitometric analysis using a photoimager. The experience was carried out in duplicate and similar results were obtained.
(§5) Total cellular RNA, isolated using the ISOGEN system (Wako Pure Chemicals, Osaka, Japan), was electrophoresed and transferred onto a nylon membrane. The membranes were hybridized overnight at 60° C. with random-primed [α-^32P]dCTP-labeled probes. The bands were visualized and subjected to densitometry using a photoimager.
as §3

In test [5] the test system is HSMC. The description is as above. How it is done:
as §4, §5, §3

Test [6] has as its system MRC5 cells. Nature of the test: Northern blot time course of FGF-2-mediated VEGF mRNA expression. To be noted: MRC5, 10 ng/ml FGF-2, Northern blot. As to the method: (B) A p70S6K inhibitor, Rapamycin (RAPA) stops the later phase of FGF-2-mediated VEGF mRNA expression in MRC5 cells. After 48 hours of preincubation in the presence of 1% FBS, cells were stimulated with 10 ng/ml of recombinant human FGF-2. Cells were harvested at the time indicated in the figure and then subjected to Northern blot analysis. The bands were visualized and subjected to densitometric analysis using a photoimager.
as §5

On to `N#CC(=C(/N)Sc1ccccc1N)/C(C#N)=C(\N)Sc1ccccc1N` [MEK inhibitor, U0126, reference compound], for which, in the test with MRC5 cells [1], the “FGF-2-mediated upregulation of HGF/SF protein” value is “removed these effects” and the “FGF-2-mediated upregulation of VEGF protein” value was “removed these effects”.

Regarding “PDGF-AA: recombinant PDGF-A homodimer used to stimulate cells”, the “release of VEGF into the culture medium” value in the test on MRC5 cells [2] is recorded as “did not”. In addition, the “level of VEGF in the culture medium” value in the test with HSMC [3] was “upregulated”. The FGFR1 expression result in the test on MRC5 cells [4] (data not shown) is reported as “did not change”.

As for “FGF-2: human recombinant fibroblast growth factor-2 used to stimulate cells”, the “release of VEGF into the culture medium” value in the test on MRC5 cells [2] is recorded as “stimulated release of VEGF”. For the same molecule, in the test with MRC5 cells [1], the “FGF-2-mediated upregulation of HGF/SF protein” value was “upregulated” and the “FGF-2-mediated upregulation of VEGF protein” value was “upregulated”. Further, the PDGFRα transcription entry with MRC5 cells [4] (MRC5, Northern blot) is given as “upregulation”. The PDGFRα transcription entry in the test on HSMC [5] is recorded as “upregulation”. For the same molecule, in the test on MRC5 cells [6], the “time course of FGF-2-mediated VEGF expression” value was “biphasic (at three hours and after that) upregulation”.
